Literature values in patent US20220133758A1, “TREATMENT OF INFLAMMATORY BOWEL DISEASES WITH 2'-FUCOSYLLACTOSE COMPOUNDS” (CHILDREN'S HOSPITAL MEDICAL CENTER, priority 2017, published 2022).

How the values were obtained:
[1] = infliximab or adalimumab anti-TNF therapy, despite optimal therapeutic drug monitoring and dosing
[2] = test system: EC genes regulating butyrate transport, signaling, and mitochondrial oxidation; conditions: IBD patients who experience mucosal healing
[3] = test system: fecal Bifidobacterium

Substance	patients relapsed [1] [%]	inflammatory suppression of EC genes regulating butyrate transport, signaling, and mitochondrial oxidation [2]	Bifidobacterium abundance ([3]; pediatric CD study)	correction of dysbiosis ([3]; suppression of mucosal inflammation)
adalimumab	37	–	–	–
infliximab: monoclonal anti-TNF antibody	37	largely corrected	not associated with increased Bifidobacterium abundance	only partially corrects
